Experimental data: patent US8883749B2, “Transcription factor inhibitors and related compositions, formulations and methods” (The Ohio State University, priority 2009, dated 2014)

How the values were obtained:
ALDH^− cells = assay: Effects on ALDH- cells; type: cell-based, human
[1] = tested on: ALDH^+ subpopulation of MDA-MB-231, SUM159, and SK-BR3 cells; assay: MTT cell viability assay of ALDH+ cells; type: cell-based, human; conditions: 1 to 10 μmol/L, 72 hours
Method: The ALDH^+ subpopulation of breast cancer cells was seeded in 96-well plates (3,000 cells/well) in triplicates in a serum-free mammary epithelial basal medium. […] MTT (Thiazolyl Blue Tetrazolium Bromide, Sigma-Aldrich) assay was used to determine the cell viability.

[2] = tested on: ALDH^+ subpopulation of SK-BR-3, MDA-MB-231, and SUM159; assay: Tumorsphere culture of ALDH+ cells; type: cell-based, human; conditions: 2.5-10 μmol/L, 10 to 15 days
Method: Tumorsphere culture was performed as previously described (4). ALDH^+ and ALDH^+/CD44^+/CD24^− cells were plated as single cells in ultra-low attachment six-well plates at a density of 50,000 viable cells/well. […] Tumorsphere growth was observed under a microscope 10 to 15 days later.

[3] = tested on: ALDH^+ subpopulation of MDA-MB-231, SUM159, and SK-BR-3 breast cancer cells; assay: ALDEFLUOR assay, percentage of ALDH+ subpopulation; type: cell-based, human; conditions: 10 μM, 24 hours
Source text: The ALDEFLUOR kit (StemCell Technologies) was used to isolate the population with high ALDH enzymatic activity as known. […] For each sample, an aliquot of cells was stained under identical conditions with […] diethylaminobenzaldehyde (DEAB), a specific ALDH inhibitor, as a ALDH^− control. Anti-human PE-CD24 and PE-Cy5-CD44 antibody (BioLegend) were used for CD44/CD24 identification and to separate ALDH^+/CD44^+/CD24^− and ALDH^−/CD44^+/CD24^+ cells when combine with ALDH staining. Analysis was performed using a FACStarPLUS (Becton Dickinion) flow cytometer.

[4] = target: STAT3 phosphorylation in ALDH^+ subpopulation of MDA-MB-231, SUM159, and SK-BR-3 (Homo sapiens, UniProt P40763); assay: Western blot of ALDH+ cells; type: cell-based; conditions: LLL12 5 μmol/L, 24 hours
Method: ALDH^+ and ALDH^- subpopulations, or ALDH^+/CD44^+/CD24^- and ALDH^-/CD44^+/CD24^+ subpopulations of breast cancer cells were separated by flow cytometer. After sorting, ALDH^+ and ALDH^+/CD44^+/CD24^- stem cells were cultured in serum-free stem cell medium in ultra-low attachment six-well plates (Corning) to maintain cancer stem cell characteristics. ALDH^-, ALDH^-/CD44^+/CD24^+ cells and unseperated cells were cultured in regular medium and replaced with identical stem cell medium for three days before being harvested.

[5] = tested on: HPAC pancreatic cancer cells; assay: MTT cell viability assay; type: cell-based, human; conditions: Homo sapiens, 72 hours, 10% FBS, read-out: half-maximal inhibitory concentration (IC50), cell viability
Method: (§1) STAT3 activation is important for tumor cell proliferation and survival.
(§2) The cells were incubated at 37° C. for a period of 72 hours. 3-(4,5-Dimethylthiazolyl)-2,5-diphenyltetrazolium bromide (MTT) viability assay was done according to manufacturer's protocol (Roche Diagnostics, Mannheim, Germany). […] Half-maximal inhibitory concentrations (IC50) were determined using Sigma Plot 9.0 Software (Systat Software Inc., San Jose, Calif.).

[6] = tested on: PANC-1 pancreatic cancer cells; assay: MTT cell viability assay; type: cell-based, human; conditions: Homo sapiens; PANC-1, MTT, 72 hours, 10% FBS; read-out: half-maximal inhibitory concentration (IC50), cell viability
Method: as §1, §2

U373 glioblastoma cells = assay: MTT cell viability assay; type: cell-based, human; conditions: Homo sapiens, U373 MG, 72 hours, 10% FBS, read-out: half-maximal inhibitory concentration (IC50), cell viability
Method: as §1, §2

[7] = tested on: SK-BR-3 breast cancer cells; assay: MTT cell viability assay; type: cell-based, human; conditions: Homo sapiens; SK-BR-3, MTT, 72 hours, 10% FBS; read-out: half-maximal inhibitory concentration (IC50), cell viability
Method: as §1, §2

[8] = tested on: MDA-MB-231 breast cancer cells; assay: MTT cell viability assay; type: cell-based, human; conditions: Homo sapiens; MDA-MB-231, MTT, 72 hours, 10% FBS; read-out: half-maximal inhibitory concentration (IC50), cell viability
Method: as §1, §2

Chain of STAT3 phosphorylation in ALDH^+ subpopulation of MDA-MB-231, SUM159, and SK-BR-3 (P40763 whole entry): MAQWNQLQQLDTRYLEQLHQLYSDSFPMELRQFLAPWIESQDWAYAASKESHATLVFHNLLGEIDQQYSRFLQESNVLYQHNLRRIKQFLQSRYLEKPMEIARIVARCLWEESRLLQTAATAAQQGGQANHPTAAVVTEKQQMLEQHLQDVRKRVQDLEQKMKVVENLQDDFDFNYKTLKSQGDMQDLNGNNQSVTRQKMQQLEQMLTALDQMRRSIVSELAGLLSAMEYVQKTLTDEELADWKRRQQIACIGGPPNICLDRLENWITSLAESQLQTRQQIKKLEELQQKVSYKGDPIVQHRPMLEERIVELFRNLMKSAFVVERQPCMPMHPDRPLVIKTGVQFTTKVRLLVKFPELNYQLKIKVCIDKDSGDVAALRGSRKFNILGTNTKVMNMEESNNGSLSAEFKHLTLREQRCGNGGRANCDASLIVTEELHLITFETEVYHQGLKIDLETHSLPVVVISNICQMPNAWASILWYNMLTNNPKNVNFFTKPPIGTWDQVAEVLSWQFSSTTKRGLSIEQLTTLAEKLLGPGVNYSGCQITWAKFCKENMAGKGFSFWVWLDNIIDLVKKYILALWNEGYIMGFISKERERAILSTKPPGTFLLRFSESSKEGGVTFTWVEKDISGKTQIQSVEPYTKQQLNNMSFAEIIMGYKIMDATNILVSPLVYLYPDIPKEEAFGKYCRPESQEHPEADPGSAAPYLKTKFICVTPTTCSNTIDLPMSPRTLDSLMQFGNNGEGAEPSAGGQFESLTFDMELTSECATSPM

Row | STAT3 phosphorylation in ALDH^+ cells [4] | IC50 [5] | IC50 [6] | IC50 (U373 glioblastoma cells) | IC50 [7] | IC50 [8] | SMILES | effects on ALDH^− cells (ALDH^− cells) | cell viability of the ALDH^+ subpopulation [1] | tumorsphere forming capacity [2] | ALDH^+ subpopulation percentage [3]
1 | reduces STAT3 phosphorylation | – | – | – | – | – | O=[N+]([O-])c1ccc2c(c1)S(=O)(=O)C=C2 [Stattic] | inhibitory effects | can inhibit cell viability | can inhibit tumorsphere forming capacity | decreased the percentage of ALDH^+ subpopulation
2 | – | 2.52 µM | 5.12 µM | 5.16 µM | 3.31 µM | 7.48 µM | C[C@H](NC(=O)/C(C#N)=C/c1cccc(Br)n1)c1ccccc1 [WP1066] | – | – | – | –
